Assay results from ChEMBL document CHEMBL5465560, “Selectivity Literature for EUbOPEN Chemogenomic Library” (2024).
Blank lines part the entries; values can stand above or below the compound they belong to.

Assays:
[1] = target: Vascular endothelial growth factor receptor 1 (Homo sapiens) (UniProt P17948); assay: Selectivity interaction (Kinase panel (Z-LYTE Assay)) EUB0001632a FLT1; conditions: at 10 µM
[2] = target: Serine/threonine-protein kinase WNK2 (Homo sapiens) (UniProt Q9Y3S1); assay: Selectivity interaction (LanthaScreen Eu Kinase Binding Assay) EUB0001632a WNK2; conditions: at 10 µM
[3] = target: Cyclin-dependent kinase 17 (Homo sapiens) (UniProt Q00537); assay: Selectivity interaction (ActivX KiNativ screen (kinase selectivity in THP-1 cell lysates)) EUB0000639a CDK17; format: subcellular; conditions: lysate, at 5 µM
[4] = target: Mitogen-activated protein kinase kinase kinase 11 (Homo sapiens) (UniProt Q16584); assay: Selectivity interaction (KinomeScan (DiscoverX)) EUB0001049a MAP3K11; conditions: at 1 µM
[5] = target: T1, Calcium/calmodulin-dependent protein kinase type IV (Homo sapiens) (UniProt Q16566); assay: Selectivity interaction (Millipore kinase profiler) EUB0000124b CAMK4; conditions: at 10 µM
T1 sequence (whole entry): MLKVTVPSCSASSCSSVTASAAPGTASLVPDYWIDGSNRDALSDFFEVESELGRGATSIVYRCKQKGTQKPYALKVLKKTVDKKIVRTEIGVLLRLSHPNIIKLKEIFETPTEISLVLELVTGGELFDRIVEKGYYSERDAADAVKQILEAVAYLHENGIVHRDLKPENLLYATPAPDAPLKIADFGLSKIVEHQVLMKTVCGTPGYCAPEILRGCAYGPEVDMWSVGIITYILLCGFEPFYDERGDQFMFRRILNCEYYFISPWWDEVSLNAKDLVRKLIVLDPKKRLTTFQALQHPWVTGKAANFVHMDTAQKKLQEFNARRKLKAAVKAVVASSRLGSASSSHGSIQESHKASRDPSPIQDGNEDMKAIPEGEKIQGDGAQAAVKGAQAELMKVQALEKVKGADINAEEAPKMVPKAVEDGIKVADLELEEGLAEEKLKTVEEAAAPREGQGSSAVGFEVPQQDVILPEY

[6] = target: T2, Serine/threonine-protein kinase haspin (Homo sapiens) (UniProt Q8TF76); assay: Selectivity interaction (Ambit KINOMEscan and KiNATiv profiling in Jurkat cells) EUB0000090b GSG2; format: cell-based; conditions: at 1 µM
T2 sequence (whole entry): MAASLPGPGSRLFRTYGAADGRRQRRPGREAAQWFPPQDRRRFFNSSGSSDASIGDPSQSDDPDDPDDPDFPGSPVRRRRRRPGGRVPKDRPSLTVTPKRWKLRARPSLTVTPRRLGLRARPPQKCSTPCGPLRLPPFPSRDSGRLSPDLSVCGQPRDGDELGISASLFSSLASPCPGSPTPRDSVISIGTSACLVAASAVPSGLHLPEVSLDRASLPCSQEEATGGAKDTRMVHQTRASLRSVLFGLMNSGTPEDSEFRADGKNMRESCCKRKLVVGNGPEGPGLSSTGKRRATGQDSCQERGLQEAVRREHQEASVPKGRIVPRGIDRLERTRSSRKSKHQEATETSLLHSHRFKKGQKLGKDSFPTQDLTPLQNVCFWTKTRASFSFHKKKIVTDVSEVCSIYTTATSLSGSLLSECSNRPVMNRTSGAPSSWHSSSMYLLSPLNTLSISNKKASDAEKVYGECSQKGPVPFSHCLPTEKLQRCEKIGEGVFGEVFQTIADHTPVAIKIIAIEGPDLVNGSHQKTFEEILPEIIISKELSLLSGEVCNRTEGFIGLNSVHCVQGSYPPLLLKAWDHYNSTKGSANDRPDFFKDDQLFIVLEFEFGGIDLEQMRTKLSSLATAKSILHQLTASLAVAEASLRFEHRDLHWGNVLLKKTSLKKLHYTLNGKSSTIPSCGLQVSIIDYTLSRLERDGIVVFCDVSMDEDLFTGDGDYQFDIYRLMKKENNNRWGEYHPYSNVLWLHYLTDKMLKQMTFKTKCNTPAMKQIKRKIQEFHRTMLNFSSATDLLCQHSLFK

[7] = target: T3, Dual specificity protein kinase TTK (Homo sapiens) (UniProt P33981); assay: Selectivity interaction (KinomeScan (DiscoverX)) EUB0000092b TTK; conditions: at 10 µM
T3 sequence (whole entry): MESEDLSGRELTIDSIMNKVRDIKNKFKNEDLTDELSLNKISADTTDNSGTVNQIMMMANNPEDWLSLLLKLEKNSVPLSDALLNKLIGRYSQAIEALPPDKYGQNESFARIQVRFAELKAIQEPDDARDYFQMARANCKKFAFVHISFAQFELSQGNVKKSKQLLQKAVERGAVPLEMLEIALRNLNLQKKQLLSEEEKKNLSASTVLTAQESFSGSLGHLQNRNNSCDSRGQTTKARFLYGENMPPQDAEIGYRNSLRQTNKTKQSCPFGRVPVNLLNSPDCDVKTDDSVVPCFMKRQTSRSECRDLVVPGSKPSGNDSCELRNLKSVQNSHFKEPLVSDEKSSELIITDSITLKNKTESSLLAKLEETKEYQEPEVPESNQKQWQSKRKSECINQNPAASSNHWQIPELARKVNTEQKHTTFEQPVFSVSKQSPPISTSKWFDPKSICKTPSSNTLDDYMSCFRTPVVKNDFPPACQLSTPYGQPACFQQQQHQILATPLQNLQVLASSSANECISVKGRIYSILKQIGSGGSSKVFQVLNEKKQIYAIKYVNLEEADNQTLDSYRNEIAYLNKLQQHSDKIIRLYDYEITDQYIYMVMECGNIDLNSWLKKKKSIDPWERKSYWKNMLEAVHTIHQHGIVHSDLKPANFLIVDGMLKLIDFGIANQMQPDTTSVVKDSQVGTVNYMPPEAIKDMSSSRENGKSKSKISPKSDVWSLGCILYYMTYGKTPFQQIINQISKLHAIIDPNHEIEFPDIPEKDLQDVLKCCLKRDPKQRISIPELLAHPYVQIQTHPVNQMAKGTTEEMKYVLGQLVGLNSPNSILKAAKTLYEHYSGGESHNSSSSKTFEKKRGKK

Sequence of Serine/threonine-protein kinase WNK2 (Homo sapiens) (Q9Y3S1 whole entry): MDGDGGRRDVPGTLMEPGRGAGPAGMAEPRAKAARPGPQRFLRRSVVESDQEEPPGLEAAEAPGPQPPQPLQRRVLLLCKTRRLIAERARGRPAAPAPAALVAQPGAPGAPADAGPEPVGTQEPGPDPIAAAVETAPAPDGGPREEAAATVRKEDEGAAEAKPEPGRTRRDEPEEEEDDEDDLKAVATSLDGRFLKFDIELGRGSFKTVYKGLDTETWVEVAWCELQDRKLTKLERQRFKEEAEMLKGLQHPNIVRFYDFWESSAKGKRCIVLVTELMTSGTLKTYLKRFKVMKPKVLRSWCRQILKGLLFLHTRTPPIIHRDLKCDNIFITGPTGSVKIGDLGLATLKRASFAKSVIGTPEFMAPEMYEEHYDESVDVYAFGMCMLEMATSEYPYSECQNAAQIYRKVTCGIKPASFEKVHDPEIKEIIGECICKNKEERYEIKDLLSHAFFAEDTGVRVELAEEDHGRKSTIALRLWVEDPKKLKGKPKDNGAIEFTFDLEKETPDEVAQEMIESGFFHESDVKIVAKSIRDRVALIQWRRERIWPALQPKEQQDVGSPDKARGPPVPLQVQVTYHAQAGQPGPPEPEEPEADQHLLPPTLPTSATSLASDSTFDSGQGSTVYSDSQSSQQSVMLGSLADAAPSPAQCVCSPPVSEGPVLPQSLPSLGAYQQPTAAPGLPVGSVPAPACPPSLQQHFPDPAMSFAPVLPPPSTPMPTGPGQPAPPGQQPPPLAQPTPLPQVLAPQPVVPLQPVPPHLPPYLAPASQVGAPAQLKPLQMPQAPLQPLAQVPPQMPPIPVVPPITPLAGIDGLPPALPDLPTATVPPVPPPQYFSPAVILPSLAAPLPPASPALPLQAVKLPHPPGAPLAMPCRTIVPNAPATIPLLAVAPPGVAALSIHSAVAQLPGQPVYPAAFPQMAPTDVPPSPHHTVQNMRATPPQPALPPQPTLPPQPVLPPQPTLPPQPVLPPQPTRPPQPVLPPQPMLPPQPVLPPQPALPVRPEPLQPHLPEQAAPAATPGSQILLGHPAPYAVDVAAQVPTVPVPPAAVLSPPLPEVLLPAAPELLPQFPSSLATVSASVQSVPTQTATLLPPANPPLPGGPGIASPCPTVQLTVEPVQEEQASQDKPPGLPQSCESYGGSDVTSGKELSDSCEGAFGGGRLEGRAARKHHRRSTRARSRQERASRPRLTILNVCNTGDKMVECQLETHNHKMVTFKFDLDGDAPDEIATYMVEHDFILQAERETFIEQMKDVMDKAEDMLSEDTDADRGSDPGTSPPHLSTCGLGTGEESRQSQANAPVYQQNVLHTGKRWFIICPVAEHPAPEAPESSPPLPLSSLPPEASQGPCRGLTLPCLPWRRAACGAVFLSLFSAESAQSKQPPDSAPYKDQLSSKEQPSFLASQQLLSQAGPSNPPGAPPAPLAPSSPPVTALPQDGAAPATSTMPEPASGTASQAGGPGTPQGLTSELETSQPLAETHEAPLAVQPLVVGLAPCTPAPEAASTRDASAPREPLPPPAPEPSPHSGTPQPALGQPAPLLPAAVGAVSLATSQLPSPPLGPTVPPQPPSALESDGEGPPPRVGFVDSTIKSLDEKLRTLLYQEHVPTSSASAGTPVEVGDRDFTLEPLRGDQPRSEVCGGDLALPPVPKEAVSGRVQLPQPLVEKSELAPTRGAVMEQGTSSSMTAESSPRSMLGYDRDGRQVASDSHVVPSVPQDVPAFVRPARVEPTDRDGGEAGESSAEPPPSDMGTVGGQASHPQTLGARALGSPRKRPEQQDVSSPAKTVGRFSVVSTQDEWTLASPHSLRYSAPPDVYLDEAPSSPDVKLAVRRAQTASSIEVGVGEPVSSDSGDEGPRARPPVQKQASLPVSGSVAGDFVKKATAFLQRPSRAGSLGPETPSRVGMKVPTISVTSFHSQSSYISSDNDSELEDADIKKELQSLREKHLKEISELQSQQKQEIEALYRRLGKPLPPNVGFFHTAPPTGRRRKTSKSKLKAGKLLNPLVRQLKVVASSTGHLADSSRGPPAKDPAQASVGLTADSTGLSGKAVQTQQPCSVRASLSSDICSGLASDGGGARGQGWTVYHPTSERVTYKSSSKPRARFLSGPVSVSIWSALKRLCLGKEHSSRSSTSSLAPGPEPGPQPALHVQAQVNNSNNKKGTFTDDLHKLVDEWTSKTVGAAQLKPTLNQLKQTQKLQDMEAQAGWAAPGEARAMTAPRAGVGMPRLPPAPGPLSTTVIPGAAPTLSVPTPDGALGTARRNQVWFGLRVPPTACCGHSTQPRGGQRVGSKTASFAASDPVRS
Sequence of Cyclin-dependent kinase 17 (Homo sapiens) (Q00537 whole entry, looked up): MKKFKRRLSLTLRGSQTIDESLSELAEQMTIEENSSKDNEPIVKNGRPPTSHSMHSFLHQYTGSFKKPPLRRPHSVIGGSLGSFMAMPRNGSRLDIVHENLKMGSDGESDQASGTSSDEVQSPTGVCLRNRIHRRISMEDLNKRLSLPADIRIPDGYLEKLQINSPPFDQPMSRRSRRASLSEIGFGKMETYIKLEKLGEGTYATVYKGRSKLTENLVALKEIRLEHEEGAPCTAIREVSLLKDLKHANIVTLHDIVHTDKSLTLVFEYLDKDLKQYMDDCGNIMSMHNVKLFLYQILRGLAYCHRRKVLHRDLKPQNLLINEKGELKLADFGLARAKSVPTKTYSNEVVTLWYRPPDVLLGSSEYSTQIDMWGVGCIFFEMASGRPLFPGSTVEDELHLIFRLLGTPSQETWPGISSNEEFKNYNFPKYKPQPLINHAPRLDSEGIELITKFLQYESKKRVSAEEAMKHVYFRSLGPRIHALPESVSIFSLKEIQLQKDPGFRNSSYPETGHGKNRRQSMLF
Sequence of Vascular endothelial growth factor receptor 1 (Homo sapiens) (P17948 whole entry): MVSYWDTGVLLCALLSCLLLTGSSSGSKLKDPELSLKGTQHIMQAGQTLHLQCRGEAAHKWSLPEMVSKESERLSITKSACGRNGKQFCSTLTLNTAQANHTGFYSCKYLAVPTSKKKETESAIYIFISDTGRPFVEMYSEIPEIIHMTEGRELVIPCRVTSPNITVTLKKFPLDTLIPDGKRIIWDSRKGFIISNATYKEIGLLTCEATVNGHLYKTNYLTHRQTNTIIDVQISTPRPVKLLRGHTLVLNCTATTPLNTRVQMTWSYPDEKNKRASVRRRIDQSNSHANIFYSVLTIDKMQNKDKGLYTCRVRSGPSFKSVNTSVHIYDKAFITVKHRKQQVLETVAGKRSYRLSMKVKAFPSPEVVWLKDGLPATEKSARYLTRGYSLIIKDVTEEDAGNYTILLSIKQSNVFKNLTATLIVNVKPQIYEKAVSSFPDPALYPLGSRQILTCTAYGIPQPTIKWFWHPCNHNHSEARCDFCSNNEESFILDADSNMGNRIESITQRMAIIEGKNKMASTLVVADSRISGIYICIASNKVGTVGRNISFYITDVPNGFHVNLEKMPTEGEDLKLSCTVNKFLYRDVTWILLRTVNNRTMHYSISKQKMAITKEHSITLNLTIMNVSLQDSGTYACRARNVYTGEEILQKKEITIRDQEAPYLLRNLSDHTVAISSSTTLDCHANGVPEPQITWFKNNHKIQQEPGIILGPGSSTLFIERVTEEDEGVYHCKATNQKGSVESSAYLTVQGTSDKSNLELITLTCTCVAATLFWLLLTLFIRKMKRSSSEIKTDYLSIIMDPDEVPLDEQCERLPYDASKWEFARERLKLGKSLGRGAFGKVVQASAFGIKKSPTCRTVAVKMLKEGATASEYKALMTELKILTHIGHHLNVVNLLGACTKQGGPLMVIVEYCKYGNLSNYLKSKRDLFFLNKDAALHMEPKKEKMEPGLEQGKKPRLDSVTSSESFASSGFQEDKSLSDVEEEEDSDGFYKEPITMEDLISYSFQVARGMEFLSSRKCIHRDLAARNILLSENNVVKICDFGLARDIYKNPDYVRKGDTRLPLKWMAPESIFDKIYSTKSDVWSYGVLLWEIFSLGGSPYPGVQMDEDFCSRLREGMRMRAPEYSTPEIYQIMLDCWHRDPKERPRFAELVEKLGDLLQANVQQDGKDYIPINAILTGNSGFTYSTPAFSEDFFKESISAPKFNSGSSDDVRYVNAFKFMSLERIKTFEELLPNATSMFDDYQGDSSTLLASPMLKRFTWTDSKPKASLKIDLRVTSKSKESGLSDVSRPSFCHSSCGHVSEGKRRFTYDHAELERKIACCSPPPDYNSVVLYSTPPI
Sequence of Mitogen-activated protein kinase kinase kinase 11 (Homo sapiens) (Q16584 whole entry, looked up): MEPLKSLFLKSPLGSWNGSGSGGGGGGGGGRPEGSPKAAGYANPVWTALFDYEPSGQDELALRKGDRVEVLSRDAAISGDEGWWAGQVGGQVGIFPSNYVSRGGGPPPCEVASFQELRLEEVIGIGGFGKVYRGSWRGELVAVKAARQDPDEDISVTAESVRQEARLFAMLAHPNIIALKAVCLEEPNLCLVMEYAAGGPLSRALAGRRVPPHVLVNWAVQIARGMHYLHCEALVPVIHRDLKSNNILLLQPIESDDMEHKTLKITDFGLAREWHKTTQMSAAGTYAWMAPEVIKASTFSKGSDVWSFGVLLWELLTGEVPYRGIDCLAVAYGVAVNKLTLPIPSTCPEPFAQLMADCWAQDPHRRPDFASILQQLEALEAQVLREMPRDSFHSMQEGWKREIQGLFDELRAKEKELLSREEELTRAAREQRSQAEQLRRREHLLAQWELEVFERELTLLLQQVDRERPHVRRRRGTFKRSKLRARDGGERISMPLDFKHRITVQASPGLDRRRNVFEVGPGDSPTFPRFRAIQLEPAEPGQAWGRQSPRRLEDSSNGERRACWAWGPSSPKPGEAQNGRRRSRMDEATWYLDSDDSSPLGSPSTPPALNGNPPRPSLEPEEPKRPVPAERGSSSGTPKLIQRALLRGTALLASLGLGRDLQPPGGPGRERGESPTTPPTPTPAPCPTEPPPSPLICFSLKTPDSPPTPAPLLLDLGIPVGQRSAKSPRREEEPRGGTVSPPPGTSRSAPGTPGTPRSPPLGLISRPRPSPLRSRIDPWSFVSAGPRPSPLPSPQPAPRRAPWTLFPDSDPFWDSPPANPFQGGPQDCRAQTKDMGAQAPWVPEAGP

SMILES: Cn1cc(-n2cnc3c(NCc4nc5cc(Cl)c(Cl)cc5[nH]4)nc(N4CCOCC4)nc32)cn1
- % of control [1]: 1.04%
- % of inhibition [2]: -13.6%

SMILES: COc1cc(Nc2nc(C)cc(-c3cnn4nc(OC)ccc34)n2)cc(C(F)(F)F)c1
- % of control [4]: 79%

SMILES: CN(C)C/C=C/C(=O)Nc1ccc(C(=O)N2CCCC(Nc3ncc(Cl)c(-c4c[nH]c5ccccc45)n3)C2)cc1 (configuration not stated)
- % of control [6]: 73%

SMILES: CCC(=O)N1CCN(c2ccc(-n3c(=O)ccc4cnc5ccc(-c6cnc7ccccc7c6)cc5c43)cc2C(F)(F)F)CC1
- % of control [7]: 9.6%

More lines, now with the values ahead:

- % of inhibition [3]: 6.5%
SMILES: CC[C@@H]1[C@H](F)C(=O)N[C@@H]1COc1nccc2cc(C(N)=O)c(OC)cc12 [ZIMLOVISERTIB]

- % of control [5]: 97%
SMILES: CC(=O)Nc1cccc(-n2c(=O)n(C3CC3)c(=O)c3c(Nc4ccc(I)cc4F)n(C)c(=O)c(C)c32)c1
